In patent US11478466B2, “Small molecule promoting osteoblast differentiation” (Cornell University, priority 2019, dated 2022):
Where two headings read alike, the source gives them in different places.

What was measured:
MKK3/6 = test: Western blotting of MKK3/6 in BRITER cells; assay type: cell-based, mouse
Procedure: Cells were maintained in DMEM with 10% FBS. For analysis of DIPQUO effects independent of BMP signaling, BMP-2 and BMP-4 knockdown was achieved by treating cells overnight with 1 μM 4-hydroxytamoxifen (4-OHT), followed by continued maintenance in 1 μM 4-OHT. Cells were serum-starved for at least 6 hours before treatment with recombinant BMP protein or DIPQUO as noted in figure legends.
Whole cell extracts were collected from C2C12 or BRITER cells in complete lysis buffer (20 mM Tris, 150 mM NaCl, 50 mM NaF, 1% NP40 substitute, HALT protease inhibitor cocktail (ThermoScientific). Proteins were resolved by electrophoresis on pre-cast 10% NuPage Bis-Tris gels (Invitrogen) and transferred to PVDF membranes (Bio-Rad). Membranes were blocked in 5% BSA-TBS-0.5% Tween-20 for 15 minutes, then incubated at 4° overnight with primary antibodies. Antibodies used were: rabbit anti-phospho-p38 MAPK (cat. no. 9211), anti-p38 MAPK XP (8690), anti-phospho-SMAD1/5 (9516), anti-SMAD1 XP (6944), anti-phospho-SMAD2/3 (8828), anti-SMAD2/3 XP (8685), anti-phospho-JNK (4668), anti-SAPK/JNK (9252), anti-phospho-Akt XP (4060), pan anti-Akt (4691), anti-phospho ERK p42/p44 (4377), anti-ERK p42/p44 (9102), anti-phospho-MKK3/6 (12280), anti-MKK3 (8535), anti-phospho-TAK1 (4531), anti-TAK1 (5206), anti-HA (3274), and anti-FLAG (14793); all from Cell Signaling); and mouse anti-p38α (cat. no. […]

C2C12 cells = test: C2C12 culture morphology and survival under treatment; assay type: cell-based, mouse; set-up: effect of continued treatment on C2C12 culture: dose or concentration left out as unconfirmed
[1] = tested on: alkaline phosphatase (ALP); test: cells; details: Mus musculus; for activation at 10 µM: C2C12, 96 h
Text: To identify small-molecule activators of osteoblast differentiation, we measured ALP activity using a fluorescent emission assay as a reporter for enzymatic digestion of ALP substrate in lysates derived from C2C12 myoblasts. […] Therefore, before screening, the assay was calibrated using recombinant human BMP4 protein as a positive control. Compounds were robotically deposited onto 384-well plates and then overlaid by C2C12 cells for a 4-day culture period, followed by lysis and fluorescent substrate assays (FIG. 1A; Table 1). To ensure uniformity, C2C12 cells were maintained in normal culture medium containing 10% fetal bovine serum, and lysis and substrate addition achieved using a microplate multidrop device. The primary screen (Table 2) encompassed greater than 47,000 small molecules tested at a final concentration of 10 μM.
For the primary screen, library compounds were distributed onto 384-well microplates (Greiner Bio-One 781091) at a final concentration of 10 μM in culture medium using a Perkin Elmer Janus automated workstation and WinPrep Version 4.8.3.315. Positive (rhBMP4, 1 ng/ml, R&D Systems) and negative controls (DMSO, 0.2%) were manually added to each plate by multichannel pipet. C2C12 cells were seeded onto compounds and controls at a density of 2000/well using a Thermo Multidrop Combi reagent dispenser and cultured for 4 days at 37° C., 5% CO2. Culture medium was aspirated using a BioTek EL406 plate washer and cells were lysed in RIPA buffer (Millipore 20-188) at ambient temperature for 10 minutes. 10 μl fluorescent alkaline phosphatase substrate (AttoPhos, Promega S1000) was added to lysates and incubated an additional 10 minutes before measuring the fluorescence (Excitation 450 nm/Emission 580 nm) on a BioTek Synergy Neo2 stacking microplate reader. Plates were processed and relative fluorescence raw values measured in stacks of 10-20. The data were processed using Collaborative Drug Discovery web-based software (CDD Vault) to determine Z score calculated on DMSO control wells and percent activation normalized against positive and negative controls (NPA). Cherry-picked hit candidates were re-tested in concentration response experiments, from which 4 candidates were chosen and purchased for further testing from either ChemBridge or Enamine, based on availability.
We also purchased a library of 154 structural chemical analogs assembled by ChemBridge Corp. from available screening library compounds.

[2] = tested on: alkaline phosphatase (ALP); test: Flow cytometric analysis of ALP-positive C2C12 cell population; assay type: cell-based, mouse; details: C2C12, day 2; baseline approximately 4% in DMSO-treated cells
Procedure: C2C12 cells were treated for 2 days with 10 μM DIPQUO or structural analogs, 1 ng/ml rhBMP4, or with inhibitors as noted in figure legends, and then fixed briefly in 70% acetone/10% formaldehyde/20% citrate. Staining was achieved using the leukocyte alkaline phosphatase kit (Sigma 86R-1KT) according to the manufacturer's instructions. Expression of ALP was confirmed and quantified by flow cytometric analysis, using an Accuri C6 flow cytometer. Briefly, control- or DIPQUO-treated C2C12 cells were detached and harvested on day 2 using PBS-based enzyme-free cell detachment solution (ThermoFisher). 2×10^5 cells were incubated on ice for 30 minutes with 10 μl APC-conjugated ALPL antibody (R&D Systems), and washed in ice-cold PBS before analysis. Live cells were gated and analyzed in CFlow Plus software and then data was converted to FlowJo to achieve publication-level resolution. […] After an additional 3 days, cells were either fixed and stained for ALP expression or analyzed for ALP activity using the AttoPhos Substrate kit. Hemagglutinin and FLAG epitope-tagged MKK3 (pMT2-HA-MKK3) and MKK6 (pcDNA3-FLAG-MKK6) constructs were obtained from Addgene and transfected into C2C12 cells using Lipofectamine LTX with Plus Reagent (ThermoFisher) according to manufacturer's instructions and cell extracts analyzed for protein expression and activity as described below.

JNK p54 = test: Western blotting of JNK in C2C12 cells; assay type: cell-based, mouse
Procedure: Whole cell extracts were collected from C2C12 or BRITER cells in complete lysis buffer (20 mM Tris, 150 mM NaCl, 50 mM NaF, 1% NP40 substitute, HALT protease inhibitor cocktail (ThermoScientific). Proteins were resolved by electrophoresis on pre-cast 10% NuPage Bis-Tris gels (Invitrogen) and transferred to PVDF membranes (Bio-Rad). Membranes were blocked in 5% BSA-TBS-0.5% Tween-20 for 15 minutes, then incubated at 4° overnight with primary antibodies. Antibodies used were: rabbit anti-phospho-p38 MAPK (cat. no. 9211), anti-p38 MAPK XP (8690), anti-phospho-SMAD1/5 (9516), anti-SMAD1 XP (6944), anti-phospho-SMAD2/3 (8828), anti-SMAD2/3 XP (8685), anti-phospho-JNK (4668), anti-SAPK/JNK (9252), anti-phospho-Akt XP (4060), pan anti-Akt (4691), anti-phospho ERK p42/p44 (4377), anti-ERK p42/p44 (9102), anti-phospho-MKK3/6 (12280), anti-MKK3 (8535), anti-phospho-TAK1 (4531), anti-TAK1 (5206), anti-HA (3274), and anti-FLAG (14793); all from Cell Signaling); and mouse anti-p38α (cat. no. 33-1300), anti-p38β (33-8700; both ThermoFisher) and anti-β-actin (Sigma A1978). Proteins were visualized with HRP-conjugated secondary antibodies (Bio-Rad) with WestPico (ThermoFisher) or Immobilon (Millipore) chemiluminescence reagents. Images were obtained and analyzed for relative densitometric relationships on a LI-COR C-DiGit scanner using Image Studio software.

Cc1cc(C)c2[nH]c(=O)c(-c3[nH]cnc3-c3ccccc3)cc2c1 [RU-0226606, 6,8-dimethyl-3-(4-phenyl-1H-imidazol-5-yl)quinolin-2(1H)-one]
phosphorylation of MKK3/6 (MKK3/6): stimulated rapid phosphorylation of MKK3/6
cellular morphology (C2C12 cells; C2C12): rapid rearrangement of cellular architecture from fibroblast-like to a cuboidal phenotype
effect of continued treatment on C2C12 culture (C2C12 cells; continued treatment, partially rescued by IGF-1): attrition of the C2C12 culture
EC50 ([1]; C2C12): 9.3 µM
activation at 10 µM [1]: 100%
activation at 10 µM ([1]; read-out: NPA Score Threshold ≥ 5.0 (normalized percent activation)): 8.78%
EC50 ([1]; C2C12, read-out: Measured EC50): 8.6 µM
EC50 ([1]; C2C12, read-out: half maximal effective concentration in C2C12 cells): 6.27 µM
ALP-expressing fraction of the cell culture (flow cytometry) [2]: > 30%
JNK p54 signaling (JNK p54): suppressed the p54 isoform
